# Measurements taken from patent publication US8173840B2, “Compounds with high therapeutic index” (Signature R&D Holdings, LLC, priority 2003, dated 2012).
# Read-outs that look alike come from different tables or passages of the source.
# How the values were obtained:
# [1] = tested on: rats; assay: Clotting time in rats, different date, time intervals and doses (Table 24); assay type: in vivo, rat
# Source text: The following additional data were obtained, when the same drugs were compared in rats on a different date with different time intervals and doses: […]
# [2] = tested on: Male albino rats; assay: Blood clotting time in albino rats, 2 hours after dosing; assay type: in vivo, rat; settings: for Mean Clotting Time (± S.D.): 20 mg/kg as aspirin, 2 hours (±10 minutes) after dosing
# Method: Aspirin served as positive control. Male albino rats were exposed to aspirin and to 3 new formulations of amino acid derivatives of aspirin derivatives at one dose level of 20 mg/kg body weight. […]. The doses were expressed as aspirin molar equivalents.
# The efficacy in terms of time required for the blood clotting time at the dose level of 20 mg/kg body weight for different formulations of amino acid derivatives of aspirin and aspirin (positive control) are presented below:
# The data on the mean clotting time (MCT) of the animals, estimated 2 hours (±10 minutes) after dosing, at the dose level of 20 mg/kg body weight for the formulations of aspirin derivatives, vehicle control and positive control are presented below
# [3] = tested on: albino rats; assay: Blood clotting time in albino rats, one hour after dosing; assay type: in vivo, rat; settings: for Mean Clotting Time (±S.D.), Low Dose: 1.0 mg/kg as aspirin; for Mean Clotting Time (±S.D.), Intermediate Dose: 4.0 mg/kg as aspirin; for Mean Clotting Time (±S.D.), High Dose: 10.0 mg/kg as aspirin; for effectiveness with respect to clotting time: one hour after administration
# Method: The data on the mean clotting time (MCT) of the animals of low, intermediate and high dose groups of different formulations, vehicle control and positive control groups estimated one hour after dosing were presented below (Table 19):
# Aspirin served as positive control. The study was conducted at three dose levels with the new formulations and positive control along with a vehicle control group.
# The doses for the main study were selected based on the dose range finding experiments with acetylsalicylic acid. All the doses were expressed as aspirin molar equivalents. The doses used are presented below.
# [4] = tested on: fasted male albino rats (Wistar strain); assay: Gastric mucosa irritation of acetylsalicylic acid esters; assay type: in vivo, rat; settings: two doses, 100 and 200 mg/kg
# Method: Aspirin served as a reference control. […] All the doses were expressed as aspirin molar equivalents. The doses used as well as the molar equivalents are presented below. The rats were fasted for a period of 18 to 22 hours before dosing. The test item was administered as a single dose by gavage. Three hours after drug administration, the animals were killed humanely by CO2 gas inhalation. The stomach was dissected out and observed for • the quantity of mucous exudate, • degree of hyperemia and thickening of stomach wall, • hemorrhagic spots (focal or diffuse), nature of hemorrhages (petechial or ecchymotic) along with the size and • perforations
# [5] = tested on: albino mouse; assay: Anesthetic effect in male albino mice, righting reflex as index; settings: low, intermediate, high dose
# Source text: However the doses of low, intermediate and high for different formulations and reference control were different.
# The different doses for each formulation and reference control were selected based on the recommendation of Sponsor. All the doses were expressed as propofol molar equivalents.
# [6] = tested on: albino mice (Swiss strain); assay: 14 day repeated dose toxicity study, intravenous route, propofol esters
# Method: by conducting a 14 day repeated dose toxicity study through intravenous route using albino mice as test system.
# Propofol and its derivatives above were administered to albino mice (Swiss strain), through intravenous route daily for a period of 14 days using sterile sodium chloride solution as vehicle. The study was conducted at one dose level only along with a vehicle control group as per the recommendation of the Sponsor.
# The doses were selected as per the recommendation of the Sponsor. The test doses are expressed as Propofol molar equivalents.
# [7] = tested on: laboratory mice; assay: DSS induced ulcerative colitis in mice, disease treatment study (Disease Activity Index); assay type: in vivo, mouse; settings: for Mean DAI: treatment started after colitis symptoms, mean of 10 mice
# Source text: The mean group DAI is the determined.
# Much more dramatic results were obtained when the mice were initially treated with DSS to induce colitis. Once clear symptoms of colitis were seen, DSS was replaced by drinking water, and treatment started with test and reference drugs, including vehicle control. All results are mean of 10 mice.
# [8] = tested on: laboratory mice; settings: for Mean DAI: DSS coupled with drug from day 1, 10 mice per group; for performance in the model: DSS coupled with drug from day 1
# Method: Percent animal body weight loss, stool consistency and occult blood at the end of the study will be taken into consideration to calculate Disease Activity Index (“DAI”) of each animal. The following scoring system outlined in Table 30 was for the percent body weight loss, stool consistency and occult blood:
# The scores for each parameter for each mouse at the end of study are added together and divided by three (number of observations) to determine DAI. The mean group DAI is the determined. A score of 3 was assigned for any animal that died during the testing.
# In this study, DSS administration is coupled with administration of either test or reference drug from day 1.
# [9] = tested on: Swiss Albino Mice; assay: 28-day chronic toxicity study of ibuprofen esters; settings: 28 days
# Source text: Randomization was done by the method of stratified randomization procedure using SAS software program (Version 8.2) with stratification by bodyweight.
# The duration of dosing was 28 days. All the animals were daily tested until the end of the study for the presence/absence of clinical symptoms of toxicity. Cage side observations included changes in the skin, eyes, posture, gait, respiration and behavior pattern. The incidence of twitching, tremors, convulsions, salivation, diarrhea and death if any, were also recorded.
# [10] = tested on: male albino mice (Swiss strain); assay: Acetylcholine induced abdominal constriction (writhe) method; assay type: in vivo, mouse; settings: for Number of animals showing absence of single writhe (number of animals per dose = 10), One hour after dosing / Number of animals showing absence of single writhe (number of animals per dose = 10), Three hours after dosing: gavage
# Method: Ibuprofen (racemic mixture) and ibuprofen (S)-(+) served as reference controls.
# The study was conducted at two dose levels viz. 50 mg and 100 mg/kg body weight along with a vehicle control group. At each dose level 10 animals were used. All the doses were expressed as ibuprofen molar equivalents. The doses used as well as the molar equivalents are presented below.
# The efficacy in terms of antagonizing effect on acetylcholine induced single writhe at two dose levels—50.0 and 100.0 mg/kg for the three formulations and reference controls are presented below.
# [11] = 50.0 mg/kg in terms of Ibuprofen
# [12] = 100.0 mg/kg in terms of Ibuprofen
compound,measurement,setting,value
"CC(=O)Oc1ccccc1C(=O)OC[C@H](N)C(=O)O [L-serine ester of acetylsalicylic acid, 2-O-Acetylsalicylic Acid (2S)-(+)-serine Ester]",Clotting Time,[1]; 10 mg/kg 1 hr,6.9 min
same,Clotting Time,[1]; 10 mg/kg 24 hr,4.4 min
same,Clotting Time,[1]; 20 mg/kg 2 hr,3.8 min
same,Mean Clotting Time (± S.D.),[2],3.8 ± 0.92 min
same,"Mean Clotting Time (±S.D.), Low Dose",[3]; one hour after dosing,5.7 ± 1.34 min
same,"Mean Clotting Time (±S.D.), Intermediate Dose",[3]; one hour after dosing,6.8 ± 1.48 min
same,"Mean Clotting Time (±S.D.), High Dose",[3]; one hour after dosing,6.9 ± 1.37 min
same,effectiveness with respect to clotting time,[3],as effective as acetylsalicylic acid
same,esters inducing evidence of irritation of gastric mucosa,[4],none
"CC(C)c1cccc(C(C)C)c1O [Propofol injection, 2,6-diisopropylphenol, reference compound]",dose response relation (statistical analysis),[5],statistically significant and clearly evident
same,feed intake,[6]; 14 days,normal and comparable to that of vehicle control group
same,animals exhibiting clinical symptoms of toxicity,[6]; IV daily 14 days,None of the animals
same,body weight gain,"[6]; IV daily 14 days, compared to vehicle control",normal and comparable to that of vehicle control group of animals
"CC(=O)Oc1ccccc1C(=O)OC1CN[C@H](C(=O)O)C1 (stereo partly drawn) [2-O-Acetylsalicylic Acid (2S,4R)-4-hydroxyproline Ester]",Clotting Time,[1]; 10 mg/kg 1 hr,7.5 min
same,Clotting Time,[1]; 10 mg/kg 24 hr,3.3 min
same,Clotting Time,[1]; 20 mg/kg 2 hr,4.2 min
same,Mean Clotting Time (± S.D.),[2],4.2 ± 1.32 min
same,mean blood clotting time with respect to positive control (statistics),[2]; after two hours,no significant difference at 5% significance level
same,"Mean Clotting Time (±S.D.), Low Dose",[3]; one hour after dosing,6.1 ± 1.10 min
same,"Mean Clotting Time (±S.D.), Intermediate Dose",[3]; one hour after dosing,5.7 ± 0.82 min
same,"Mean Clotting Time (±S.D.), High Dose",[3]; one hour after dosing,7.5 ± 1.18 min
same,effectiveness with respect to clotting time,[3],as effective as acetylsalicylic acid
same,statistical analysis of mean clotting time vs vehicle control,[3]; one hour after dosing,significant improvement at 5% significance level in the efficacy for the high dose and low dose
same,esters inducing evidence of irritation of gastric mucosa,[4],none
"Cyclosporine A N-(L-lysine)-glycine ester, dihydrochloride trihydrate [Cyclosporine-GL]",Mean DAI,[7],0.532
same,Mean DAI,[8],1.100
Glycine Ester of Cyclosporine A [Cyclosporine-G],Mean DAI,[7],0.100
same,mice that died (out of 10),[7]; treatment study,none died
same,statistical result vs Cyclosporine reference drug,[7]; treatment study,statistically significant results
same,performance in the model,[8],didn't perform as expected
same,Mean DAI,[8],1.531
"CC(C)Cc1ccc(C(C)C(=O)O[C@H]2CN[C@H](C(=O)O)C2)cc1 (mixture of isomers) [(±)-Ibuprofen-L-hydroxyproline ester, 4(R)-[2-(4-Isobutyl-phenyl)-propionyloxy]-pyrrolidine-2(S)-carboxylic acid] [listing 1 of 2 here]",No of animals survived,[9]; 10 animals per group,9
same,animals that died,[9]; both sexes,10%
same,Mortality,[9]; Female,1/5
same,Mortality,[9]; Male,Nil
same,Average Change In body Weight,[9]; surviving animals,1.43 gms
same,Percentage Change of body weight,[9]; surviving animals,5.75%
"CC(C)Cc1ccc(C(C)C(=O)O[C@H]2CN[C@H](C(=O)O)C2)cc1 (mixture of isomers) [(±)-Ibuprofen-L-hydroxyproline ester, 4(R)-[2-(4-Isobutyl-phenyl)-propionyloxy]-pyrrolidine-2(S)-carboxylic acid] [listing 2 of 2 here]","Number of animals showing absence of single writhe (number of animals per dose = 10), One hour after dosing",[10]; [11],5
same,"Number of animals showing absence of single writhe (number of animals per dose = 10), Three hours after dosing",[10]; [11],4
same,"Number of animals showing absence of single writhe (number of animals per dose = 10), One hour after dosing",[10]; [12],7
same,"Number of animals showing absence of single writhe (number of animals per dose = 10), Three hours after dosing",[10]; [12],7
same,"antagonizing the acetylcholine induced writhe, clinical observation","[10]; compared to other formulations, Ibuprofen (racemic) and Ibuprofen (S)-(+)",more effective in antagonizing the acetylcholine induced writhe
"CC(C)Cc1ccc(C(C)C(=O)OC[C@H](N)C(=O)O)cc1.Cl (mixture of isomers) [(±)-Ibuprofen-L-serine ester, 2(S)-Amino-3-[2(R,S)-(4-isobutylphenyl)-propionyloxy]-propionic acid, hydrochloride]","Number of animals showing absence of single writhe (number of animals per dose = 10), One hour after dosing",[10]; [11],4
same,"Number of animals showing absence of single writhe (number of animals per dose = 10), Three hours after dosing",[10]; [11],2
same,"Number of animals showing absence of single writhe (number of animals per dose = 10), One hour after dosing",[10]; [12],6
same,"Number of animals showing absence of single writhe (number of animals per dose = 10), Three hours after dosing",[10]; [12],4
"CC(C)Cc1ccc([C@H](C)C(=O)O)cc1 [Ibuprofen (S)-(+), reference compound]","Number of animals showing absence of single writhe (number of animals per dose = 10), One hour after dosing",[10]; [11],5
same,"Number of animals showing absence of single writhe (number of animals per dose = 10), Three hours after dosing",[10]; [11],1
same,"Number of animals showing absence of single writhe (number of animals per dose = 10), One hour after dosing",[10]; [12],6
same,"Number of animals showing absence of single writhe (number of animals per dose = 10), Three hours after dosing",[10]; [12],6
"Cyclosporine A N-(L-proline)-glycine ester, hydrochloride [Cyclosporine-GP]",Mean DAI,[7],0.066
same,statistical result vs Cyclosporine reference drug,[7]; treatment study,statistically significant results
same,performance in the model,[8],statistically significant performance compared to Cyclosporine A
same,Mean DAI,[8],1.062
